From patent publication US11034672B1, “Tyrosine kinase inhibitor compositions, methods of making and methods of use” (Black Diamond Therapeutics, Inc., priority 2018, dated 2021)

Experiments:
HER2 S310F [1] = biological target: T1, HER2 S310F (Homo sapiens, UniProt P04626, S310F); assay: BaF3 cell proliferation assay, HER2 S310F (Table B); type: cell-based; conditions: potency code, 3 days, CellTiterGlo, read-out: HER2 S310F (Activity for Inhibiting HER2)
T1 construct: expressed in transfected cells; host or cells: BaF3 (murine pro-B)
T1 sequence (P04626 23-1255 S310F): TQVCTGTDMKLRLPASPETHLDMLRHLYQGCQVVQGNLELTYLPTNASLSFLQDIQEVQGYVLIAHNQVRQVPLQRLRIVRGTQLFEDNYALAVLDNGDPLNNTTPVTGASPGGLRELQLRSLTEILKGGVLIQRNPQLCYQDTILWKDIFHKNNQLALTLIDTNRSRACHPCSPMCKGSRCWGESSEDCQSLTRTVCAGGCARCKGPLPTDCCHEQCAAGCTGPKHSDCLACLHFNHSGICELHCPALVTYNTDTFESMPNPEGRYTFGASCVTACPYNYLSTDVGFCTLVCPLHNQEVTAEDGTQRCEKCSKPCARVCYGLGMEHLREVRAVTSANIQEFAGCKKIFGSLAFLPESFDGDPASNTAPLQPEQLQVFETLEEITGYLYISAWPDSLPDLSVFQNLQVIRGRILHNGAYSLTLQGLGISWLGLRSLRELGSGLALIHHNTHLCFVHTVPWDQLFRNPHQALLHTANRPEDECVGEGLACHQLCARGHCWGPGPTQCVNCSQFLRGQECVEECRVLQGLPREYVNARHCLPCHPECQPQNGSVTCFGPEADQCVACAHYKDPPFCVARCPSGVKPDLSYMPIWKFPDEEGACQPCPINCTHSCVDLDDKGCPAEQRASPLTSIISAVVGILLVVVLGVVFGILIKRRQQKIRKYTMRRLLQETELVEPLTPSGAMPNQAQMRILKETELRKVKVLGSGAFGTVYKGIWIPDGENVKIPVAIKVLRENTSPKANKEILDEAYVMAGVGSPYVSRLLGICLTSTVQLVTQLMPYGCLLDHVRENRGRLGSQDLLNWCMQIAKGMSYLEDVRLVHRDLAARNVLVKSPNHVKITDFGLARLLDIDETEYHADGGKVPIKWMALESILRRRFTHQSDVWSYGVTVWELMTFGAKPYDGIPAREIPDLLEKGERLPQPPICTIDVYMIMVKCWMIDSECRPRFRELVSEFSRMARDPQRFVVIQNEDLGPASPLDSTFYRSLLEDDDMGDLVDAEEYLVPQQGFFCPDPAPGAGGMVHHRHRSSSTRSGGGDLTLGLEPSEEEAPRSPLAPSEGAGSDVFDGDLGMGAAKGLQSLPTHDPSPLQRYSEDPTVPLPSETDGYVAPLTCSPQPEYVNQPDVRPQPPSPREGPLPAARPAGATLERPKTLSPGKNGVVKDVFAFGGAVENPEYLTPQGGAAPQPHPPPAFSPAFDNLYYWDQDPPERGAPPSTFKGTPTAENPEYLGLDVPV

HER2 WT [2] = biological target: T2, HER2 WT (Homo sapiens, UniProt P04626); assay: Activity for inhibiting HER2 (Table B), HER2 WT; type: cell-based
T2 sequence (P04626 23-1255): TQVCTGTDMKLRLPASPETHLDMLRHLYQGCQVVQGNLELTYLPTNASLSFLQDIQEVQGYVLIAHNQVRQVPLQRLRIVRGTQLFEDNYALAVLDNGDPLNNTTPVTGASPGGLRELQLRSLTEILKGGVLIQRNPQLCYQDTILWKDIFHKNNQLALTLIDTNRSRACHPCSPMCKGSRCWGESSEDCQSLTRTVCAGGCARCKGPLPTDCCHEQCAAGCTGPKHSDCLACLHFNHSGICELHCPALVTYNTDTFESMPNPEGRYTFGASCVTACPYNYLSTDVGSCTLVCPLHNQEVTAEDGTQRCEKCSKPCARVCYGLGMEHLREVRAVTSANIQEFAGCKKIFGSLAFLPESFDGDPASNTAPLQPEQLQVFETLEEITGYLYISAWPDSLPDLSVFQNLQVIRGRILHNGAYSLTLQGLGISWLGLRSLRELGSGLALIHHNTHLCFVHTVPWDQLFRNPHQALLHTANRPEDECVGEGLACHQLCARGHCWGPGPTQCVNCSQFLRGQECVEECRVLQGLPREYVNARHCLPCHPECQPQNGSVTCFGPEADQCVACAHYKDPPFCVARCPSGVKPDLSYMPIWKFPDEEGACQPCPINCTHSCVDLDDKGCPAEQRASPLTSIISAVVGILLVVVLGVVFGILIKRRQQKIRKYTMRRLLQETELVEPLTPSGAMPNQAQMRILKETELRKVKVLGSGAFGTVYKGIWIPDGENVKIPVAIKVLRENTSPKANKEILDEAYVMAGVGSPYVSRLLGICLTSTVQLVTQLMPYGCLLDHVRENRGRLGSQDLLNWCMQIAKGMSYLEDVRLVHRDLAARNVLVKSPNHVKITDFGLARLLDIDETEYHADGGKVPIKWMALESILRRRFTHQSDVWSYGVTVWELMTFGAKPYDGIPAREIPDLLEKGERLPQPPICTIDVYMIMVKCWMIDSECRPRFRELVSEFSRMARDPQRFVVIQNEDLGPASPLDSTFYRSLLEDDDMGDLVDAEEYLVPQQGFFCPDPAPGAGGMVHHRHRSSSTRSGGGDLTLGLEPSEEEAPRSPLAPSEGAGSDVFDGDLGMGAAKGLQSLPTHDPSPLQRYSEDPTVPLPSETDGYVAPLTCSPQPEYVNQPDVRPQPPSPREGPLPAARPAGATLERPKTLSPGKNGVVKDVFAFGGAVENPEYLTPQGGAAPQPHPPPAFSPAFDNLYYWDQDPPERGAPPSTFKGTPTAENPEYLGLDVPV

EGFR NPH [3] = biological target: T3, EGFR NPH (Homo sapiens, UniProt P00533, DUP771-773); assay: Activity for inhibiting EGFR (Table A), EGFR NPH; type: cell-based; conditions: read-out: EGFR NPH, potency code (IC50)
T3 construct: expressed in transfected cells; host or cells: BaF3 (murine pro-B), retroviral pMXs-IRES-Blasticidin

EGFR SVD [4] = biological target: T4, EGFR SVD (Homo sapiens, UniProt P00533, DUP768-770); assay: Activity for inhibiting EGFR (Table A), EGFR SVD; type: cell-based; conditions: read-out: EGFR SVD, potency code (IC50)
T4 construct: expressed in transfected cells; host or cells: BaF3 (murine pro-B), retroviral pMXs-IRES-Blasticidin
T4 sequence (P00533 with tags, fused parts or gaps DUP768-770): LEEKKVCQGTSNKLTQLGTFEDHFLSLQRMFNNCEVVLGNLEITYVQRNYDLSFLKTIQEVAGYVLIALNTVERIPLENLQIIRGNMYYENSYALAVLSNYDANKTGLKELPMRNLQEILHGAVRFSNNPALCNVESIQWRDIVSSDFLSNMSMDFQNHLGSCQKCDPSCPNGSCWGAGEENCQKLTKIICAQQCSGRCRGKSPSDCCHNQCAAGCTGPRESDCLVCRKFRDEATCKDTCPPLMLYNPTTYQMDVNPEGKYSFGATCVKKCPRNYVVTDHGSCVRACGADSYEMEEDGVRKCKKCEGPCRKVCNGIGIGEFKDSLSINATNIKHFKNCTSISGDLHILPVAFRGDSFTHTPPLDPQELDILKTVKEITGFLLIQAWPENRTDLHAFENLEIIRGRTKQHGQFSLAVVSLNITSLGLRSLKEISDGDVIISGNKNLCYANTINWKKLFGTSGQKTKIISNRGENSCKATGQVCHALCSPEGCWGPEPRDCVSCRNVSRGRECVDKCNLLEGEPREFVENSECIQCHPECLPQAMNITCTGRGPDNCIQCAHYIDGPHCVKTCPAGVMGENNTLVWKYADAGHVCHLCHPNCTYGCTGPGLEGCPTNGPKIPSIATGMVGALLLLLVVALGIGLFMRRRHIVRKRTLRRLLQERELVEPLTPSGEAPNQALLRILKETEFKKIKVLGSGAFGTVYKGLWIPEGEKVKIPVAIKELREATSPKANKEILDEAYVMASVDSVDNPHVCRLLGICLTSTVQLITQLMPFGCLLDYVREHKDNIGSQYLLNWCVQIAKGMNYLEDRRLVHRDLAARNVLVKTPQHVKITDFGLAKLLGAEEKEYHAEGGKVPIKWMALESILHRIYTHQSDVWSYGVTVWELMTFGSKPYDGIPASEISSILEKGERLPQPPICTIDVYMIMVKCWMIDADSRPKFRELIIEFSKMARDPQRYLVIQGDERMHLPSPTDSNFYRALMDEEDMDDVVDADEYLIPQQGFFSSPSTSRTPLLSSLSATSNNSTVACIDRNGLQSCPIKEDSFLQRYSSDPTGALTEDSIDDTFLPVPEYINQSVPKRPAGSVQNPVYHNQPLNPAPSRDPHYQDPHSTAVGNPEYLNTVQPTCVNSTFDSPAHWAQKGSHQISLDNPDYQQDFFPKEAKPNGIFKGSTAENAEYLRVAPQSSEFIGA

EGFR SVD [5] = biological target: T4, EGFR SVD; assay: BaF3 cell proliferation assay, EGFR SVD (Table A); type: cell-based; conditions: potency code, 3 days, CellTiterGlo, read-out: EGFR SVD (Activity for Inhibiting EGFR)
Outline: (§1)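 BaF3 + retroviral EGFR/HER2 mutant (two rounds of spinfection, 8 μg/ml polybrene); 10 μg/ml Blasticidin selection 1 wk; IL-3 withdrawn to select IL-3-independent growth. EC50 from cell proliferation.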

EGFR WT [6] = biological target: T5, EGFR WT (Homo sapiens, UniProt P00533); assay: BaF3 cell proliferation assay, EGFR WT (Table A); type: cell-based; conditions: potency code, 3 days, CellTiterGlo, read-out: EGFR WT (Activity for Inhibiting EGFR)
Outline: as §1

HER2 YVMA [7] = biological target: T6, HER2 YVMA (Homo sapiens, UniProt P04626, INS775YVMA); assay: Activity for inhibiting HER2 (Table B), HER2 YVMA; type: cell-based; conditions: read-out: HER2 YVMA, potency code (IC50)
T6 construct: expressed in transfected cells; host or cells: BaF3 (murine pro-B)
Method: (§2) EC50 values were determined with the same application.

EGFR V3 [8] = biological target: T7, EGFR V3 (Homo sapiens, UniProt P00533, DELINS30-297G); assay: Activity for inhibiting EGFR (Table A), EGFR V3 (EGFR-Viii); type: cell-based; conditions: read-out: EGFR V3, potency code (IC50)
T7 construct: expressed in transfected cells; host or cells: BaF3 (murine pro-B), retroviral pMXs-IRES-Blasticidin
T7 sequence (P00533 with tags, fused parts or gaps DELINS30-297G): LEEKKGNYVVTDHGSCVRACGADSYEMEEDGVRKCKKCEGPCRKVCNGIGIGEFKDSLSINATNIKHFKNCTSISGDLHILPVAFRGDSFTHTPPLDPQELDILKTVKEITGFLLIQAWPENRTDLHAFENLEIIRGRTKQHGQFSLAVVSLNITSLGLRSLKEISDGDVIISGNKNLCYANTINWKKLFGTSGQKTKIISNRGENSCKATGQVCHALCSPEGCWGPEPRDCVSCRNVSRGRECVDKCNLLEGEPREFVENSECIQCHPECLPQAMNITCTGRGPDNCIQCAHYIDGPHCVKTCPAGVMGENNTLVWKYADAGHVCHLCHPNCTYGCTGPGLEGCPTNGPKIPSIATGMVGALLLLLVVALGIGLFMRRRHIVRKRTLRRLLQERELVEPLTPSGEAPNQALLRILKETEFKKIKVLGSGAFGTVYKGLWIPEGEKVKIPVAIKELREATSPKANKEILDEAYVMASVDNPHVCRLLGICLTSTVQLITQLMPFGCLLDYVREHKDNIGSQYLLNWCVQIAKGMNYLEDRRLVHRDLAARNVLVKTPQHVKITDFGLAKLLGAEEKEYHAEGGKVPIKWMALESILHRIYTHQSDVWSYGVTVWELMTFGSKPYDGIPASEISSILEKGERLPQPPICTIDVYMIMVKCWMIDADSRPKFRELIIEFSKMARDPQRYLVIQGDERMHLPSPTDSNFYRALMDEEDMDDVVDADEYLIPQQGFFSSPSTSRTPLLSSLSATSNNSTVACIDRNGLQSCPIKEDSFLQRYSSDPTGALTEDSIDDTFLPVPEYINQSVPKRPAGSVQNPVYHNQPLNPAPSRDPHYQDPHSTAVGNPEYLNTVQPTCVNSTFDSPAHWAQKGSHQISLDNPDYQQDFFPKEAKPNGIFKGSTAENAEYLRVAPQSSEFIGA

HER2 WT [9] = biological target: T2, HER2 WT; assay: BaF3 cell proliferation assay, HER2 WT (Table B); type: cell-based; conditions: potency code, 3 days, CellTiterGlo, read-out: HER2 WT (Activity for Inhibiting HER2)
EGFR WT [10] = biological target: T5, EGFR WT; assay: Activity for inhibiting EGFR (Table A), EGFR WT; type: cell-based; conditions: read-out: EGFR WT, potency code (IC50)
HER2 S310F [11] = biological target: T1, HER2 S310F; assay: Activity for inhibiting HER2 (Table B), HER2 S310F; type: cell-based; conditions: read-out: HER2 S310F, potency code (IC50)
Method: as §2

EGFR V3 [12] = biological target: T7, EGFR V3; assay: BaF3 cell proliferation assay, EGFR V3 (Table A); type: cell-based; conditions: potency code, 3 days, CellTiterGlo, read-out: EGFR V3 (Activity for Inhibiting EGFR)
Outline: as §1

HER2 YVMA [13] = biological target: T6, HER2 YVMA; assay: BaF3 cell proliferation assay, HER2 YVMA (Table B); type: cell-based; conditions: potency code, 3 days, CellTiterGlo, read-out: HER2 YVMA (Activity for Inhibiting HER2)
EGFR NPH [14] = biological target: T3, EGFR NPH; assay: BaF3 cell proliferation assay, EGFR NPH (Table A); type: cell-based; conditions: potency code, 3 days, CellTiterGlo, read-out: EGFR NPH (Activity for Inhibiting EGFR)
Outline: as §1

Her2 S310F BaF3 tumors = assay: Tumor growth in athymic nude mice bearing Her2 S310F BaF3 tumors; type: in vivo; conditions: for Tumor response: FIG. 28
Method: Tumor size was measured for each dosing schedule, and analyzed to assess regression. […] The effect was further confirmed in the dose-dependent experiment.
A mouse tumor model containing mutant Her2 was used to test the ability of Compound No. 26 to inhibit tumor growth and induce tumor regression in vivo. Athymic nude mice from Charles River Labs bearing Her2 S310F BaF3 tumors were treated with Compound No. 26 either at 15 mg/kg once per day (QD), 7.5 mg/kg twice per day (BID), and 15 mg/kg twice per day (BID). Tumor size was measured for each dosing condition and analyzed to assess regression. […] The effect was further confirmed in mice dosed at 15 mg/kg once per day (QD), 7.5 mg/kg twice per day (BID), and 15 mg/kg twice per day (BID). In addition to assessing tumor size in these groups, plasma was collected from dosed individuals at 2 and 5 hours following each treatment. Compound No. 26 levels were measured in the plasma samples to determine pharmacokinetic profiles that may influence tumor response.
Tumor size was measured and analyzed to assess the effect on tumor growth and regression.
A mouse tumor model containing mutant Her2 was used to test the ability of Compound No. 6 to inhibit tumor growth and induce tumor regression in vivo. Athymic nude mice from Charles River Labs bearing Her2 S310F BaF3 tumors were treated with Compound No. 6 at 30 mg/kg once per day (QD) for 10 days. Tumor size was measured and analyzed to assess the effect on tumor growth and regression.

[15] = Table B, read-out: HER2 WT, potency code (IC50)
[16] = text lists of compounds, read-out: IC50 value for inhibiting wild-type HER2
[17] = 50 mg/kg once per day for 10 days

SMILES | IC50 (HER2 S310F [1]) | IC50 (HER2 WT [2]; [15]) | IC50 (HER2 WT [2]; [16]) | IC50 (EGFR NPH [3]) | IC50 (EGFR SVD [4]) | IC50 (EGFR SVD [5]) | IC50 (EGFR WT [6]) | IC50 (HER2 YVMA [7]) | IC50 (EGFR V3 [8]) | IC50 (HER2 WT [9]) | IC50 (EGFR WT [10]) | IC50 (HER2 S310F [11]) | IC50 (EGFR V3 [12]) | IC50 (HER2 YVMA [13]) | IC50 (EGFR NPH [14]) | Tumor volume (Her2 S310F BaF3 tumors; [17]) | also measured
CC#CC(=O)Nc1cc2c(Nc3ccc(OCc4ccccn4)c(Cl)c3)ncnc2cc1OCCN1CCOCC1 [compound 5] | < 5 nM | < 5 nM | ≤ 5 nM | 30 to 50 nM | 10 to 20 nM | 10 to 20 nM | 30 to 50 nM | 5 to 10 nM | 10 to 20 nM | < 5 nM | 30 to 50 nM | < 5 nM | 10 to 20 nM | 5 to 10 nM | 30 to 50 nM | – | –
C=CC(=O)Nc1cc2c(Nc3cc(Cl)c(OCc4cccc(F)c4)cc3F)ncnc2cc1OCCN1CCOCC1 [compound 6] | 10 to 20 nM | 5 to 10 nM | ≤ 10 nM | – | – | – | 200 to 300 nM | 50 to 100 nM | 20 to 30 nM | 5 to 10 nM | 200 to 300 nM | 10 to 20 nM | 20 to 30 nM | 50 to 100 nM | – | – | Tumor volume (Her2 S310F BaF3 tumors; 30 mg/kg once per day (QD) for 10 days, FIG. 30): decreased
C=CC(=O)Nc1cc2c(Nc3ccc(OCc4ccccn4)c(Cl)c3)ncnc2cc1OCCN1CCOCC1 [compound 8] | 10 to 20 nM | 5 to 10 nM | ≤ 10 nM | 30 to 50 nM | 20 to 30 nM | 20 to 30 nM | 300 to 500 nM | 50 to 100 nM | 20 to 30 nM | 5 to 10 nM | 300 to 500 nM | 10 to 20 nM | 20 to 30 nM | 50 to 100 nM | 30 to 50 nM | decreased | Tumor regression, dose-dependent experiment (Her2 S310F BaF3 tumors; 15 mg/kg to 100 mg/kg once per day (QD) for 10 days, FIG. 26 right panel): regressed in a Compound No. 8 dose-dependent manner
C=CC(=O)Nc1cc2c(Nc3ccc(OCc4ccccn4)c(Cl)c3)ncnc2cc1OCCCN1CCOCC1 [compound 21] | 5 to 10 nM | < 5 nM | ≤ 10 nM | 10 to 20 nM | 10 to 20 nM | 10 to 20 nM | 500 to 1000 nM | 20 to 30 nM | 20 to 30 nM | < 5 nM | 500 to 1000 nM | 5 to 10 nM | 20 to 30 nM | 20 to 30 nM | 10 to 20 nM | did not increase over the same timeframe and showed moderate reduction in volume | –
C=CC(=O)Nc1cc2c(Nc3ccc(OCc4ccccn4)c(Cl)c3)ncnc2cc1C#C[C@@H]1[C@H]2CN(C)C[C@@H]12 [compound 26] | 5 to 10 nM | 5 to 10 nM | ≤ 10 nM | 30 to 50 nM | 30 to 50 nM | 30 to 50 nM | 300 to 500 nM | 30 to 50 nM | 30 to 50 nM | 5 to 10 nM | 300 to 500 nM | 5 to 10 nM | 30 to 50 nM | 30 to 50 nM | 30 to 50 nM | – | Tumor response (Her2 S310F BaF3 tumors; 7.5 mg/kg twice per day (BID)): definite tumor growth inhibition properties; Tumor response (Her2 S310F BaF3 tumors; 15 mg/kg BID): definite tumor regressive properties; Tumor volume over the time course (Her2 S310F BaF3 tumors; 15 mg/kg QD, 7.5 mg/kg BID, 15 mg/kg BID, FIG. 27): did not increase; Tumor response (Her2 S310F BaF3 tumors; 15 mg/kg once per day (QD)): definite tumor growth inhibition properties
